Assay results from US12570642B2, “GLP-IR modulating compounds” (Gilead Sciences, Inc., priority 2021, dated 2026).

Biological target: GLP-1R (Homo sapiens, UniProt P43220)
Experiment: GLP-1R Activation - cAMP Assay
Assay type: cell-based
Settings: cAMP increase in CHO cells stably expressing GLP-1R; each compound run on one of the two cAMP assays (Assay 1 or Assay 2, not specified)
Procedure, shortened: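 CHO cells stably expressing GLP-1R, plated at 1,000 cells/well overnight, then equilibrated 1 h in HBSS with 20 mM Hepes and 0.1% BSA. Agonist added as 10-point dose response for 30 min at 37 °C. cAMP measured by HTRF (Cisbio Gs Dynamic kit); EC50 from sigmoidal fit.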

Chain of GLP-1R (P43220 24-463): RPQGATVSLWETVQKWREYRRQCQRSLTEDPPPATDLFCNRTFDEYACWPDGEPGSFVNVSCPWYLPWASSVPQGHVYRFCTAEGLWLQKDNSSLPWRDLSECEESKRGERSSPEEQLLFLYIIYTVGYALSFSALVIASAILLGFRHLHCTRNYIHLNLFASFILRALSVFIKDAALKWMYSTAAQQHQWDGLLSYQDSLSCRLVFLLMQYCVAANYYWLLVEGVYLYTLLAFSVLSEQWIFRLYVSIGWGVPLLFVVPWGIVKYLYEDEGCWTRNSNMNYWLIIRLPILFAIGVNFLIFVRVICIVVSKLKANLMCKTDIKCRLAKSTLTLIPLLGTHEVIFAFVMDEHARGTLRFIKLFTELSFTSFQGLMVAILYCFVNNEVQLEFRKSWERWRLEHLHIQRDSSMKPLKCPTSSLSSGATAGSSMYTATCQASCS

| SMILES | EC50 |
| --- | --- |
| CC1(C)COC[C@@H]1n1c(Cc2cc(F)c(-c3cccc(OCc4ncc(Cl)cc4F)n3)cc2F)nc2ccc(C(=O)O)cc21 (single isomer, unassigned) [Example 289B] | 0.931 nM |
| CC1(C)COC[C@H]1n1c(Cc2cc(F)c(-c3cccc(OCc4cnc(-c5cnn(C(F)F)c5)cc4Cl)n3)cc2F)nc2ccc(C(=O)O)cc21 [Example 552, (S)-2-(4-(6-((4-chloro-6-(1-(difluoromethyl)-1H-pyrazol-4-yl)pyridin-3-yl)methoxy)pyridin-2-yl)-2,5-difluorobenzyl)-1-(4,4-dimethyltetrahydrofuran-3-yl)-1H-benzo[d]imidazole-6-carboxylic acid] | 0.99 nM |
| CC1(C)COCC1n1c(Cc2ccc(-c3cccc(OCc4ccc(C#N)cc4F)n3)cc2F)nc2ccc(C(=O)O)cc21 (stereo not shown) [Example 384, 2-(4-(6-((4-cyano-2-fluorobenzyl)oxy)pyridin-2-yl)-2-fluorobenzyl)-1-(4,4-dimethyltetrahydrofuran-3-yl)-1H-benzo[d]imidazole-6-carboxylic acid] | 0.205 nM |
| CC1(C)COC[C@H]1n1c(Cc2cc(F)c(-c3cccc(OCc4ccc(C5CC5)cc4)n3)cc2F)nc2ccc(C(=O)O)cc21 [Example 431, (S)-2-(4-(6-((4-cyclopropylbenzyl)oxy)pyridin-2-yl)-2,5-difluorobenzyl)-1-(4,4-dimethyltetrahydrofuran-3-yl)-1H-benzo[d]imidazole-6-carboxylic acid] | 0.377 nM |
| CC1(C)COC[C@H]1n1c(Cc2c(F)cc(-c3cccc(OCc4ccc(-n5ccnn5)cc4F)n3)c(F)c2F)nc2c(F)cc(C(=O)O)cc21 [Example 241, (S)-1-(4,4-dimethyltetrahydrofuran-3-yl)-4-fluoro-2-(2,3,6-trifluoro-4-(6-((2-fluoro-4-(1H-1,2,3-triazol-1-yl)benzyl)oxy)pyridin-2-yl)benzyl)-1H-benzo[d]imidazole-6-carboxylic acid] | 0.013 nM |
| Cn1ncc2cc(COc3cccc(-c4cc(F)c(Cc5nc6ccc(C(=O)O)cc6n5C[C@@H]5CCO5)cc4F)n3)ccc21 [Example 526, (S)-2-(2,5-difluoro-4-(6-((1-methyl-1H-indazol-5-yl)methoxy)pyridin-2-yl)benzyl)-1-(oxetan-2-ylmethyl)-1H-benzo[d]imidazole-6-carboxylic acid] | 0.509 nM |
| N#Cc1ccc(COc2cccc(-c3cc(F)c(Cc4nc5ccc(C(=O)O)cc5n4[C@H]4COC[C@@H]4C4CC4)cc3F)n2)c(F)c1 [Example 189, 2-(4-(6-((4-cyano-2-fluorobenzyl)oxy)pyridin-2-yl)-2,5-difluorobenzyl)-1-((3R,4R)-4-cyclopropyltetrahydrofuran-3-yl)-1H-benzo[d]imidazole-6-carboxylic acid] | 0.149 nM |
| N#Cc1ccc(COc2cccc(-c3cc(F)c(Cc4nc5ccc(C(=O)O)cc5n4[C@H]4COC[C@H]4CO)cc3F)n2)c(F)c1 (single isomer, unassigned) [Example 436] | 0.993 nM |
| CC1(C)COC[C@H]1n1c(Cc2cc(F)c(-c3ccc(F)c(OCc4cnc(-n5ccnn5)cc4Cl)n3)cc2F)nc2c(F)cc(C(=O)O)cc21 [Example 153, (S)-2-(4-(6-((4-chloro-6-(1H-1,2,3-triazol-1-yl)pyridin-3-yl)methoxy)-5-fluoropyridin-2-yl)-2,5-difluorobenzyl)-1-(4,4-dimethyltetrahydrofuran-3-yl)-4-fluoro-1H-benzo[d]imidazole-6-carboxylic Acid] | 0.011 nM |
| Cn1cc(-c2ccc(COc3cccc(-c4cc(F)c(Cc5nc6ccc(C(=O)O)cc6n5[C@@H]5COCC5(C)C)cc4F)n3)c(F)c2)cn1 [Example 535, (S)-2-(2,5-difluoro-4-(6-((2-fluoro-4-(1-methyl-1H-pyrazol-4-yl)benzyl)oxy)pyridin-2-yl)benzyl)-1-(4,4-dimethyltetrahydrofuran-3-yl)-1H-benzo[d]imidazole-6-carboxylic acid] | 0.099 nM |
| CC1(C)COC[C@H]1n1c(Cc2cc(F)c(-c3cccc(OCc4cnc(-n5ccnn5)cc4C(F)(F)F)n3)cc2F)nc2ccc(C(=O)O)cc21 [Example 414, (S)-2-(4-(6-((6-(1H-1,2,3-triazol-1-yl)-4-(trifluoromethyl)pyridin-3-yl)methoxy)pyridin-2-yl)-2,5-difluorobenzyl)-1-(4,4-dimethyltetrahydrofuran-3-yl)-1H-benzo[d]imidazole-6-carboxylic acid] | 0.261 nM |
| COCCn1c(Cc2c(F)cc(-c3ccc(F)c(OCc4ccc(C#N)cc4F)n3)c(F)c2F)nc2c(F)cc(C(=O)O)cc21 [Example 232, 2-(4-(6-((4-cyano-2-fluorobenzyl)oxy)-5-fluoropyridin-2-yl)-2,3,6-trifluorobenzyl)-4-fluoro-1-(2-methoxyethyl)-1H-benzo[d]imidazole-6-carboxylic acid] | 0.118 nM |
| CC1(C)COC[C@H]1n1c(Cc2cc(F)c(-c3cccc(OCc4ccc(OCC(F)(F)F)nc4)n3)cc2F)nc2ccc(C(=O)O)cc21 [Example 424, (S)-2-(2,5-difluoro-4-(6-((6-(2,2,2-trifluoroethoxy)pyridin-3-yl)methoxy)pyridin-2-yl)benzyl)-1-(4,4-dimethyltetrahydrofuran-3-yl)-1H-benzo[d]imidazole-6-carboxylic acid] | 0.59 nM |
| CO[C@@H]1CC[C@@H]1n1c(Cc2cc(F)c(-c3cccc(OCc4ccc(C#N)cc4F)n3)cc2F)nc2ccc(C(=O)O)cc21 [Example 65, 2-(4-(6-((4-cyano-2-fluorobenzyl)oxy)pyridin-2-yl)-2,5-difluorobenzyl)-1-((1S,2R)-2-methoxycyclobutyl)-1H-benzo[d]imidazole-6-carboxylic Acid] | 5.05 nM |
| CC1(C)COC[C@H]1n1c(Cc2cc(F)c(-c3ccnc(OCc4ccc(Cl)cc4Cl)n3)cc2F)nc2c(F)cc(C(=O)O)cc21 [Example 404, (S)-2-(4-(2-((2,4-dichlorobenzyl)oxy)pyrimidin-4-yl)-2,5-difluorobenzyl)-1-(4,4-dimethyltetrahydrofuran-3-yl)-4-fluoro-1H-benzo[d]imidazole-6-carboxylic acid] | 0.068 nM |
| CC1(C)COC[C@H]1n1c(Cc2c(F)cc(-c3ccc(F)c(OCc4ccc(Cl)cc4)n3)c(F)c2F)nc2ccc(C(=O)O)cc21 [Example 282, (S)-2-(4-(6-((4-chlorobenzyl)oxy)-5-fluoropyridin-2-yl)-2,3,6-trifluorobenzyl)-1-(4,4-dimethyltetrahydrofuran-3-yl)-1H-benzo[d]imidazole-6-carboxylic acid] | 0.192 nM |
| COCCn1c(Cc2c(F)cc(-c3cccc(OCc4cnc(-n5ccnn5)cc4Cl)n3)c(F)c2F)nc2ccc(C(=O)O)cc21 [Example 391, 2-(4-(6-((4-chloro-6-(1H-1,2,3-triazol-1-yl)pyridin-3-yl)methoxy)pyridin-2-yl)-2,3,6-trifluorobenzyl)-1-(2-methoxyethyl)-1H-benzo[d]imidazole-6-carboxylic acid] | 0.107 nM |
| N#Cc1ccc(COc2cccc(-c3cc(F)c(Cc4nc5ccc(C(=O)O)cc5n4[C@H]4COC[C@H]4CF)cc3F)n2)c(F)c1 [Example 172] | 0.129 nM |
| CC1(C)COC[C@H]1n1c(Cc2c(F)cc(-c3ccc(Cl)c(OCc4ccc(C#N)cc4F)n3)c(F)c2F)nc2ccc(C(=O)O)cc21 [Example 416, (S)-2-(4-(5-chloro-6-((4-cyano-2-fluorobenzyl)oxy)pyridin-2-yl)-2,3,6-trifluorobenzyl)-1-(4,4-dimethyltetrahydrofuran-3-yl)-1H-benzo[d]imidazole-6-carboxylic acid] | 0.235 nM |
